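96-well plates; 48 h exposure; 5 concentrations. Endpoints by linear interpolation between flanking doses. Not reached: highest tested concentration assigned. GI50 is the concentration that inhibits growth by half. Definition used: TGI = concentration required for complete inhibition of growth.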
Tests used:
Assay in all cases: NCI tumour cell line growth inhibition, 48 h
NCI-H460 lung = test system: NCI-H460 lung
HCT-116 colon = test system: HCT-116 colon
786-0 renal = test system: 786-0 renal
A498 renal = test system: A498 renal
MDA-MB-435 = test system: MDA-MB-435
SF-295 CNS = test system: SF-295 CNS
A549 NSCLC = test system: A549 NSCLC
NCI/ADR-RES ovarian = test system: NCI/ADR-RES ovarian
DU-145 prostate = test system: DU-145 prostate
MDA-MB-231 breast = test system: MDA-MB-231 breast

Row | Structure (SMILES) | TGI (NCI-H460 lung) [µM] | TGI (HCT-116 colon) [µM] | TGI (786-0 renal) [µM] | TGI (A498 renal) [µM] | TGI (MDA-MB-435) [µM] | TGI (SF-295 CNS) [µM] | TGI (A549 NSCLC) [µM] | TGI (NCI/ADR-RES ovarian) [µM] | TGI (DU-145 prostate) [µM] | TGI (MDA-MB-231 breast) [µM] | GI50 (NCI-H460 lung) [µM] | GI50 (A498 renal) [µM] | GI50 (MDA-MB-435) [µM] | GI50 (SF-295 CNS) [µM] | GI50 (NCI/ADR-RES ovarian) [µM] | GI50 (MDA-MB-231 breast) [µM] | GI50 (HCT-116 colon) [µM] | GI50 (A549 NSCLC) [µM] | GI50 (DU-145 prostate) [µM]
1 | S=C(N/N=C\C(=N/NC(=S)N1CCCCC1)c1ccccc1)N1CCCCC1 | 4.86 | 6.53 | 3.74 | 3.18 | 3.68 | 3.91 | 5.62 | 7.87 | 3.02 |  |  |  |  |  |  |  |  |  | 
2 | NCCCCNCCCNC(=O)c1nc(-c2nc(CCN)sc2Cl)sc1Cl | > 100 | > 100 |  | > 100 |  | > 100 | > 100 |  |  |  |  |  |  |  |  |  |  |  | 
3 | COC(=O)[C@@H]1CCCCC[C@H]2C(CO)=C(C)C(=O)C12 (stereo partly drawn) | > 100 | > 100 | > 100 | > 100 |  | > 100 | > 100 |  |  |  |  |  |  |  |  |  |  |  | 
4 | Cc1cc(S(=O)(=O)Nc2n[nH]c(-c3ccccn3)n2)c(S)cc1Cl | 27.7 | 55.1 | 72.7 | 30.5 | 70.6 |  | 41.9 | 35.3 | 96 | > 100 |  |  |  |  |  |  |  |  | 
5 | CC1CCC2(NC1)OC1CC3C4CC=C5CC(OC6OC(CO)C(OC7OC(C)C(O)C(O)C7O)C(O)C6OC6OC(C)C(O)C(O)C6O)CCC5(C)C4CCC3(C)C1C2C (stereo not drawn) | 9.16 | 4.91 | 3.72 | 11.8 | 5 | 3.94 | 9.59 |  | 8.61 | 8.93 |  |  |  |  |  |  |  |  | 
6 | C=C1N(C=O)C(C)(C)N(O)C1(C)C | > 100 | > 100 | > 100 |  | > 100 | > 100 | > 100 | > 100 | > 100 | > 100 |  |  |  |  |  |  |  |  | 
7 | COC(=O)C1CCc2sc3ncnc(Nc4cn[nH]c4C(=O)Nc4ccc(CN5CCN(C)CC5)cc4)c3c21 (stereo not drawn) | 1.49 |  |  | 1.8 | 3.38 | 17.1 |  | > 100 |  |  | 0.331 | 0.218 | 1.06 | 0.659 | 3.27 |  |  |  | 
8 | N#C/C(C(=O)Nc1ccc(Cl)cc1)=C(/N)N1CCCC1 | > 100 | > 100 | > 100 | > 100 | > 100 | > 100 | > 100 | > 100 | > 100 |  |  |  |  |  |  |  |  |  | 
9 | CC[C@H](Nc1nc(C)nc(N)c1C#N)c1nc2cccc(NCc3ccc(C(=O)NO)cc3)c2c(=O)n1-c1ccccc1 | 3.78 | 2.5 |  | 2.93 | 3.74 | 3.14 | 4.2 | 4.69 | 4.89 | 3.36 | 1.79 | 1.44 | 1.93 | 1.66 | 1.99 | 1.4 | 1.01 | 1.92 | 2.01
10 | O=C(CCc1cc(O)cc(O)c1)NCCCNC(=O)CCc1cc(O)cc(O)c1 |  | > 100 | > 100 | > 100 | > 100 | > 100 | > 100 | > 100 | > 100 | > 100 |  |  |  |  |  |  |  |  | 
11 | CCOC(=O)c1s/c(=N\Nc2nc3ccccc3cc2C2OCCO2)n(Cc2ccccc2)c1C | > 100 | > 100 | > 100 | > 100 |  | > 100 | > 100 |  |  |  |  |  |  |  |  |  |  |  | 
12 | COc1cc(C(=O)Oc2ccc3c(c2)OCO3)cc(OC)c1OC | > 100 |  | > 100 | > 100 | > 100 | > 100 | > 100 | > 100 | > 100 | > 100 |  |  |  |  |  |  |  |  | 
13 | C=C1C(OC2O[C@@H]3O[C@@]4(C)CC[C@H]5[C@H](C)CC[C@@H](C2=C)[C@@]35O4)O[C@@H]2O[C@@]3(C)CC[C@H]4[C@H](C)CC[C@@H]1[C@@]24O3 (stereo partly drawn) | > 50 | > 50 | > 50 | > 50 | > 50 | > 50 | > 50 |  | > 50 | > 50 |  |  |  |  |  |  |  |  | 
14 | COc1ccc(-c2c3c(n(C4OC(CO)C(O)C(O)C4O)c(=S)c2C#N)CCC3)cc1 (stereo not drawn) | > 100 | > 100 | > 100 |  | > 100 | > 100 | > 100 | > 100 | > 100 | > 100 |  |  |  |  |  |  |  |  | 
15 | COc1ccc2nc(/C(N)=C\C#N)ccc2c1 | > 100 | > 100 | > 100 |  | > 100 | > 100 | > 100 | > 100 | > 100 | > 100 |  |  |  |  |  |  |  |  | 
16 | CC(=O)OCC1OC(n2c(-c3ccccc3)c(N=Nc3ccccc3)c(C)c(C#N)c2=S)C(OC(C)=O)C(OC(C)=O)C1OC(C)=O (stereo not drawn) | > 100 | > 100 | > 100 |  | > 100 | > 100 | > 100 | > 100 | > 100 | > 100 |  |  |  |  |  |  |  |  | 
17 | O=c1nc2c(c(-c3ccc(Br)cc3)[nH]1)COC/C2=C\c1ccc(Br)cc1 | > 50 | > 50 | > 50 | > 50 | > 50 | > 50 |  | > 50 | > 50 | > 50 |  |  |  |  |  |  |  |  | 
18 | CCC1=C(C(C)=O)[C@@H]2CCCCC[C@@H](C(=O)OC)C2C1=O (stereo partly drawn) | > 100 | > 100 | > 100 | > 100 |  | > 100 | > 100 |  |  |  |  |  |  |  |  |  |  |  | 
19 | COC(=O)C1C(C(=O)OC)C2(OC(c3ccc(Cl)cc3)=CC2=O)C12OC(c1ccc(Cl)cc1)=CC2=O (stereo not drawn) | 41.5 | 30.4 | 41 | 76.1 | > 100 | 64.3 | > 100 |  | > 100 | 78.6 |  |  |  |  |  |  |  |  | 
20 | CCc1c(CNc2ccc(C(=O)NC(CC(=O)O)C(=O)O)cc2)ccc2nc(N)nc(N)c12 (stereo not drawn) | > 1000 | > 1000 | > 1000 |  | > 1000 | > 1000 | > 1000 | > 1000 | > 1000 | > 1000 |  |  |  |  |  | > 1000 |  |  | 0.148
21 | CSC(SC)=C(C(=O)O)P(=O)(O)O | > 100 | > 100 | > 100 | > 100 |  | > 100 | > 100 | > 100 | > 100 | > 100 |  |  |  |  |  |  |  |  | 
22 | CC(C)N1CC2CC(CN(C(=O)c3ccccc3)C2)C1 | > 100 |  | > 100 | > 100 |  | > 100 | > 100 |  |  |  |  |  |  |  |  |  |  |  | 

Reference: PubChem BioAssay (NCI)
